Results from ChEMBL document CHEMBL3045401, “(Naphthalen-1-yloxy)-acetic acid benzylidene/(1-phenyl-ethylidene)-hydrazide derivatives: synthesis, antimicrobial evaluation, and QSAR studies” (Med Chem Res, 2012).
Values after ≈ are worked out from the molar mass of the structure shown.

Tests used:
[1] = tested on: Candida albicans; assay: Antimicrobial activity against Candida albicans after 2 days by serial dilution method; format: functional
[2] = Cytotoxicity against HEL; format: cell-based; conditions: human, HEL cells
[3] = Cytotoxicity against Homo sapiens (human) MT4 cells after 4 days by MTT assay; format: cell-based
[4] = tested on: Aspergillus niger; assay: Antimicrobial activity against Aspergillus niger after 7 days by serial dilution method; format: functional
[5] = tested on: Human alphaherpesvirus 3; assay: Antiviral activity against thymidine kinase-deficient Human herpesvirus 3 infected in HEL cells assessed as inhibition of viral plaque formation; format: functional, organism-based; conditions: Human alphaherpesvirus 3, HEL
[6] = tested on: Bacillus subtilis; assay: Antimicrobial activity against Bacillus subtilis after 24 hr by serial dilution method; format: functional
[7] = tested on: Human immunodeficiency virus 1; assay: Antiviral activity against Human immunodeficiency virus 1 IIIB infected human MT4 cells assessed as inhibition of virus-induced cytopathic effect after 4 days by MTT assay; format: functional, organism-based; conditions: MT4, 96 h
[8] = tested on: Human betaherpesvirus 5; assay: Antiviral activity against Human herpesvirus 5 strain AD169 infected human HEL cells assessed as reduction in the virus plaque formation; format: functional, organism-based; conditions: Human betaherpesvirus 5, AD169, HEL
[9] = tested on: Human betaherpesvirus 5; assay: Antiviral activity against Human herpesvirus 5 Davis infected human HEL cells assessed as reduction in the virus plaque formation; format: functional, organism-based; conditions: Human betaherpesvirus 5, Davis
[10] = tested on: Human alphaherpesvirus 3; assay: Antiviral activity against thymidine kinase-positive Human herpesvirus 3 infected in HEL cells assessed as inhibition of viral plaque formation; format: functional, organism-based; conditions: Human alphaherpesvirus 3, HEL
[11] = tested on: Human immunodeficiency virus 2; assay: Antiviral activity against Human immunodeficiency virus type 2 (ISOLATE ROD) infected human MT4 cells assessed as inhibition of virus-induced cytopathic effect after 4 days by MTT assay; format: functional, organism-based; conditions: Human immunodeficiency virus 2, ISOLATE ROD, MT4, 96 h
[12] = tested on: Staphylococcus aureus; assay: Antimicrobial activity against Staphylococcus aureus after 24 hr by serial dilution method; format: functional
[13] = Octanol-water partition coefficient, log P of the compound; format: physicochemical
[14] = tested on: Escherichia coli; assay: Antimicrobial activity against Escherichia coli after 24 hr by serial dilution method; format: functional
[15] = Cytotoxicity against HEL assessed as minimum concentration required to cause morphological changes; format: cell-based; conditions: human, HEL cells

SMILES	EC50 [5]	EC50 [8]	EC50 [9]	EC50 [10]	logP [13]	-logMIC [1]	CC50 [2]	CC50 at 96 h [3]	-logMIC [4]	-logMIC [6]	EC50 [7]	EC50 [11]	-logMIC [12]	-logMIC [14]	MCC [15]
O=C(COc1cccc2ccccc12)N/N=C/C=C/c1ccccc1	> 20 µg/mL	> 20 µg/mL	> 20 µg/mL	> 20 µg/mL	4.43	1.72	100 µg/mL (≈ 303 µM)	82.7 µg/mL (≈ 250 µM)	0.82	1.12	> 62.7 µg/mL	> 62.7 µg/mL	1.12	1.12	100 µg/mL
O=C(COc1cccc2ccccc12)N/N=C/c1c(O)ccc2ccccc12	> 0.8 µg/mL	> 0.8 µg/mL	> 0.8 µg/mL	> 0.8 µg/mL	4.74	0.87	1.94 µg/mL (≈ 5.24 µM)	2.12 µg/mL (≈ 5.72 µM)	0.87	0.57	> 2.12 µg/mL	> 2.12 µg/mL	0.87	0.87	4 µg/mL
O=C(COc1cccc2ccccc12)N/N=C/c1c[nH]c2ccccc12	> 20 µg/mL	> 20 µg/mL	> 20 µg/mL	> 20 µg/mL	3.79	0.84	> 100 µg/mL	51.5 µg/mL (≈ 150 µM)	0.84	1.14	> 51.5 µg/mL	> 51.5 µg/mL	0.84	0.84	100 µg/mL
C/C(=N\NC(=O)COc1cccc2ccccc12)c1ccccc1	> 20 µg/mL	> 4 µg/mL	> 4 µg/mL	> 20 µg/mL	3.65	0.82	20 µg/mL (≈ 62.8 µM)	105 µg/mL (≈ 328 µM)	0.82	0.82	> 105 µg/mL	> 105 µg/mL	0.82	0.82	20 µg/mL
C/C(=N\NC(=O)COc1cccc2ccccc12)c1ccccc1Br	> 4 µg/mL	> 4 µg/mL	> 4 µg/mL	> 4 µg/mL	4.44	1.5	16.2 µg/mL (≈ 40.8 µM)	79.8 µg/mL (≈ 201 µM)	1.5	1.2	> 79.8 µg/mL	> 79.8 µg/mL	1.2	1.2	20 µg/mL
C/C(=N\NC(=O)COc1cccc2ccccc12)c1ccc(C#N)cc1Br	> 4 µg/mL	> 4 µg/mL	> 4 µg/mL	> 4 µg/mL	3.61	2.13	12.7 µg/mL (≈ 30.1 µM)	12.1 µg/mL (≈ 28.7 µM)	1.53	1.23	> 12.1 µg/mL	> 12.1 µg/mL	1.23	1.53	20 µg/mL
C/C(=N\NC(=O)COc1cccc2ccccc12)c1ccccc1O	7.9 µg/mL (≈ 23.6 µM)	> 4 µg/mL	> 4 µg/mL	7 µg/mL (≈ 20.9 µM)	3.08	0.82	4 µg/mL (≈ 12 µM)	11.2 µg/mL (≈ 33.6 µM)	0.82	0.82	> 11.2 µg/mL	> 11.2 µg/mL	1.13	1.43	20 µg/mL
C/C(=N\NC(=O)COc1cccc2ccccc12)c1ccc(O)cc1O	> 100 µg/mL	> 100 µg/mL	> 100 µg/mL	58.5 µg/mL (≈ 167 µM)	4.31	1.45	74.8 µg/mL (≈ 213 µM)	59.9 µg/mL (≈ 171 µM)	1.45	1.15	> 59.9 µg/mL	> 59.9 µg/mL	1.15	1.75	> 100 µg/mL

Now from value to molecule, other results behind:

EC50 [5]	EC50 [8]	EC50 [9]	EC50 [10]	logP [13]	SMILES	-logMIC [1]	CC50 [2]	CC50 at 96 h [3]	-logMIC [4]	-logMIC [6]	EC50 [7]	EC50 [11]	-logMIC [12]	-logMIC [14]	MCC [15]
3.24 µg/mL (≈ 9.18 µM)	> 0.8 µg/mL	4 µg/mL (≈ 11.3 µM)	2.5 µg/mL (≈ 7.09 µM)	4.17	C/C(=N\NC(=O)COc1cccc2ccccc12)c1ccc(Cl)cc1	1.75	7.1 µg/mL (≈ 20.1 µM)	4.07 µg/mL (≈ 11.5 µM)	0.85	1.15	> 4.07 µg/mL	> 4.07 µg/mL	1.45	1.15	≥ 4 µg/mL
> 4 µg/mL	> 4 µg/mL	> 4 µg/mL	> 4 µg/mL	3.61	C/C(=N\NC(=O)COc1cccc2ccccc12)c1ccc(Br)cc1	0.6	15.3 µg/mL (≈ 38.5 µM)	77.6 µg/mL (≈ 195 µM)	0.6	0.9	> 77.6 µg/mL	> 77.6 µg/mL	0.6	0.6	20 µg/mL
> 4 µg/mL	> 4 µg/mL	> 4 µg/mL	> 4 µg/mL	3.37	C/C(=N\NC(=O)COc1cccc2ccccc12)c1cccc([N+](=O)[O-])c1	1.76	10.5 µg/mL (≈ 28.9 µM)	12.1 µg/mL (≈ 33.2 µM)	1.46	1.16	> 12.1 µg/mL	> 12.1 µg/mL	1.76	1.46	20 µg/mL
> 20 µg/mL	> 20 µg/mL	> 20 µg/mL	> 20 µg/mL	3.37	C/C(=N\NC(=O)COc1cccc2ccccc12)c1ccc([N+](=O)[O-])cc1	1.46	> 100 µg/mL	89.3 µg/mL (≈ 246 µM)	0.86	1.16	> 89.3 µg/mL	> 89.3 µg/mL	1.16	1.46	100 µg/mL
> 0.8 µg/mL	> 4 µg/mL	> 4 µg/mL	> 4 µg/mL	4.44	C/C(=N\NC(=O)COc1cccc2ccccc12)c1ccc(O)cc1	1.43	11.1 µg/mL (≈ 33.2 µM)	68.8 µg/mL (≈ 206 µM)	1.43	1.13	> 68.8 µg/mL	> 68.8 µg/mL	1.13	1.43	20 µg/mL
